Test results as given in ChEMBL document CHEMBL3102738, “Synthesis and biological evaluation of nitric oxide-donating analogues of sulindac for prostate cancer treatment” (Bioorg Med Chem, 2014).
The source made the active and inactive calls. No cut-off for these calls is given here.

What was measured:
PC-3 [1] = experiment: Cytotoxicity against human PC3 cells assessed as cell viability at 50 uM after 72 hrs by crystal violet method (reference value: 95.69 +/- 7.66%); type: functional; settings: PC-3, 72 h, read-out: Activity
PC-3 [2] = experiment: Cytotoxicity against human PC3 cells assessed as cell viability at 50 uM after 24 hrs by crystal violet method (reference value: 99.09 +/- 9.87%); type: functional; settings: PC-3, 24 h, read-out: Activity
PC-3 [3] = experiment: Cytotoxicity against human PC3 cells after 72 hrs by crystal violet method; type: functional, cell-based; settings: PC-3, 72 h
PC-3 [4] = experiment: Cytotoxicity against human PC3 cells assessed as cell viability at 50 uM after 48 hrs by crystal violet method (reference value: 100.87 +/- 4.87%); type: functional; settings: PC-3, 48 h, read-out: Activity
[5] = Induction of NO release in glutathione buffer assessed as nitrite level at 400 uM after 1 hr by Griess assay (reference value: 3.3 +/- 1.2 uM); type: physicochemical
[6] = Induction of NO release in glutathione buffer at 400 uM after 1 hr by Griess assay relative to sulindac; type: physicochemical
PC-3 [7] = experiment: Cytotoxicity against human PC3 cells assessed as cell viability at 500 nM after 72 hrs by crystal violet method; type: functional; settings: PC-3, 72 h, read-out: Activity
PC-3 [8] = experiment: Cytotoxicity against human PC3 cells at 0.05 to 0.5 uM after 72 hrs by crystal violet method
PC-3 [9] = experiment: Cytotoxicity against human PC3 cells at 50 nM after 72 hrs by crystal violet method; type: functional, cell-based

Compound	viability at 50 µM (PC-3 [1]) [%]	viability at 50 µM (PC-3 [2]) [%]	IC50 (PC-3 [3]) [µM]	viability at 50 µM (PC-3 [4]) [%]	Activity [5] [µM]	Activity [6] [%]	viability at 0.5 µM (PC-3 [7]) [%]	Activity (PC-3 [8])	Activity (PC-3 [9])
CC1=C(CC(=O)OCCOc2no[n+]([O-])c2S(=O)(=O)c2ccccc2)c2cc(F)ccc2/C1=C\c1ccc([S+](C)[O-])cc1 (centres undefined)	0	0	27.9	0					
CSc1ccc(/C=C2/C(C)=C(CC(=O)OCCOc3no[n+]([O-])c3S(=O)(=O)c3ccccc3)c3cc(F)ccc32)cc1	0	0	41.4	0	41.1	10.3	11.9		
CSc1ccc(/C=C2/C(C)=C(CC(=O)NCCOC(=O)/N=c3/c[n+](-c4ccccc4)[n-]o3)c3cc(F)ccc32)cc1	17.7	57.6		27.1				inactive	
CC1=C(CC(=O)OCCCCCCOc2no[n+]([O-])c2S(=O)(=O)c2ccccc2)c2cc(F)ccc2/C1=C\c1ccc([S+](C)[O-])cc1 (centres undefined)	0	0	6.1	0	54.4	13.6			Active
CC1=C(CC(=O)NCCOC(=O)/N=c2/c[n+](-c3ccccc3)[n-]o2)c2cc(F)ccc2/C1=C\c1ccc([S+](C)[O-])cc1 (centres undefined)	41.4	76.7		46.4				inactive	
CC1=C(CC(=O)NCCNC(=O)/N=c2/c[n+](-c3ccccc3)[n-]o2)c2cc(F)ccc2/C1=C\c1ccc([S+](C)[O-])cc1 (centres undefined)	36.3	74		46.7				inactive	
CC1=C(CC(=O)NCCNC(=O)/N=c2/c[n+](-c3ccccc3)[n-]o2)c2cc(F)ccc2/C1=C\c1ccc(S(C)(=O)=O)cc1	55.5	86.1		58.2				inactive	
CSc1ccc(/C=C2/C(C)=C(CC(=O)OCCCCOc3no[n+]([O-])c3S(=O)(=O)c3ccccc3)c3cc(F)ccc32)cc1	0	0	40.3	0	33	8.2	9.17		
CC1=C(CC(=O)O)c2cc(F)ccc2/C1=C\c1ccc([S+](C)[O-])cc1 (centres undefined) [SULINDAC]	89.3	87.3		101	1.1	< 1			
CC1=C(CC(=O)/N=c2\c[n+](-c3ccccc3)[n-]o2)c2cc(F)ccc2/C1=C\c1ccc([S+](C)[O-])cc1 (centres undefined)	20.6	64.6		29.8				inactive	
CC1=C(CC(=O)NCCOC(=O)/N=c2/c[n+](-c3ccccc3)[n-]o2)c2cc(F)ccc2/C1=C\c1ccc(S(C)(=O)=O)cc1	37.3	76.5		45.9				inactive	
CC1=C(CC(=O)OCc2cccc(Oc3no[n+]([O-])c3S(=O)(=O)c3ccccc3)c2)c2cc(F)ccc2/C1=C\c1ccc(S(C)(=O)=O)cc1	63.6	88.3		67.7					
CSc1ccc(/C=C2/C(C)=C(CC(=O)Oc3cccc(Oc4no[n+]([O-])c4S(=O)(=O)c4ccccc4)c3)c3cc(F)ccc32)cc1	80.7	81.1		88.3					
CC1=C(CC(=O)OCCOCCOc2no[n+]([O-])c2S(=O)(=O)c2ccccc2)c2cc(F)ccc2/C1=C\c1ccc(S(C)(=O)=O)cc1	0	0		0					
CC1=C(CC(=O)OCCOc2no[n+]([O-])c2S(=O)(=O)c2ccccc2)c2cc(F)ccc2/C1=C\c1ccc(S(C)(=O)=O)cc1	0	0		0					
CC1=C(CC(=O)OCCCOc2no[n+]([O-])c2S(=O)(=O)c2ccccc2)c2cc(F)ccc2/C1=C\c1ccc(S(C)(=O)=O)cc1	0	0		0					
CC1=C(CC(=O)OCCOCCOc2no[n+]([O-])c2S(=O)(=O)c2ccccc2)c2cc(F)ccc2/C1=C\c1ccc([S+](C)[O-])cc1 (centres undefined)	0	0	26	0					
CC1=C(CC(=O)OC/C=C\COc2no[n+]([O-])c2S(=O)(=O)c2ccccc2)c2cc(F)ccc2/C1=C\c1ccc([S+](C)[O-])cc1 (centres undefined)	0	0	12.1	0	51.1	12.8			Active
CC1=C(CC(=O)OCCCCO)c2cc(F)ccc2/C1=C\c1ccc([S+](C)[O-])cc1 (centres undefined)	96.5	96.6		76.9					
CC1=C(CC(=O)O)c2cc(F)ccc2/C1=C\c1ccc(S(C)(=O)=O)cc1 [EXISULIND]	83.5	87.8		91					
CSc1ccc(/C=C2/C(C)=C(CC(=O)NCCNC(=O)/N=c3/c[n+](-c4ccccc4)[n-]o3)c3cc(F)ccc32)cc1	21.3	66.5		34.7				inactive	
CSc1ccc(/C=C2/C(C)=C(CC(=O)OCCCOc3no[n+]([O-])c3S(=O)(=O)c3ccccc3)c3cc(F)ccc32)cc1	15.7	34.9	48.6	21.2					
